The text below walks through data of patent US9944654B2, “Nargenicin compounds and uses thereof as antibacterial agents” (priority 2014, dated 2018).

For test [1], the target named is T1, E. coli DnaE (DNA polymerase III α-subunit from Escherichia coli) (Escherichia coli, UniProt P10443).
T1 construct: EcDnaE (E. coli DnaE residues 1-1160); 6xHis (N); made in house; host or cells: E. coli BL21(DE3)
The experiment in a line: In vitro DnaE single enzyme assay (E. coli). The format is biochemical. The procedure, abridged: (§1)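 3H-dTTP (0.011 mM) incorporation into DNase I-activated calf thymus DNA, alongside the other three dNTPs at 0.025 mM, measured by filter counting after TCA precipitation. Reactions ran 30 min at 30° C., started with purified N-His DnaE: 0.8 μg/ml for E. coli, 0.05 μg/ml for S. aureus.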

Test [2] has as its system Streptococcus pneumoniae MB6357 (CL 2883). The test is described as follows: Nargenicin antibacterial assay (MIC), S. pneumoniae. The format is cell-based. The conditions noted are these: Streptococcus pneumoniae, read-out: S. pneumoniae MB2883 (MIC), Isosensitest broth; * = some reduction of growth versus control at […].
For test [3], the system named is Escherichia coli MB5747 (LS 883, tolC). The test is described as follows: microbe, parasite or virus in culture. The format is cell-based. The conditions noted are these: Escherichia coli, read-out: E. coli LS883 tolC (MIC), MHII broth; * = some reduction of growth versus control at […].
Test [4] deals with T2, S. aureus DnaE (DNA polymerase III α-subunit homolog from Staphylococcus aureus) (Staphylococcus aureus, UniProt Q5HF71).
T2 construct: SaDnaE (S. aureus DnaE residues 1-1065); 6xHis (N); made in house; host or cells: E. coli BL21-AI
T2 sequence (Q5HF71 1-1065): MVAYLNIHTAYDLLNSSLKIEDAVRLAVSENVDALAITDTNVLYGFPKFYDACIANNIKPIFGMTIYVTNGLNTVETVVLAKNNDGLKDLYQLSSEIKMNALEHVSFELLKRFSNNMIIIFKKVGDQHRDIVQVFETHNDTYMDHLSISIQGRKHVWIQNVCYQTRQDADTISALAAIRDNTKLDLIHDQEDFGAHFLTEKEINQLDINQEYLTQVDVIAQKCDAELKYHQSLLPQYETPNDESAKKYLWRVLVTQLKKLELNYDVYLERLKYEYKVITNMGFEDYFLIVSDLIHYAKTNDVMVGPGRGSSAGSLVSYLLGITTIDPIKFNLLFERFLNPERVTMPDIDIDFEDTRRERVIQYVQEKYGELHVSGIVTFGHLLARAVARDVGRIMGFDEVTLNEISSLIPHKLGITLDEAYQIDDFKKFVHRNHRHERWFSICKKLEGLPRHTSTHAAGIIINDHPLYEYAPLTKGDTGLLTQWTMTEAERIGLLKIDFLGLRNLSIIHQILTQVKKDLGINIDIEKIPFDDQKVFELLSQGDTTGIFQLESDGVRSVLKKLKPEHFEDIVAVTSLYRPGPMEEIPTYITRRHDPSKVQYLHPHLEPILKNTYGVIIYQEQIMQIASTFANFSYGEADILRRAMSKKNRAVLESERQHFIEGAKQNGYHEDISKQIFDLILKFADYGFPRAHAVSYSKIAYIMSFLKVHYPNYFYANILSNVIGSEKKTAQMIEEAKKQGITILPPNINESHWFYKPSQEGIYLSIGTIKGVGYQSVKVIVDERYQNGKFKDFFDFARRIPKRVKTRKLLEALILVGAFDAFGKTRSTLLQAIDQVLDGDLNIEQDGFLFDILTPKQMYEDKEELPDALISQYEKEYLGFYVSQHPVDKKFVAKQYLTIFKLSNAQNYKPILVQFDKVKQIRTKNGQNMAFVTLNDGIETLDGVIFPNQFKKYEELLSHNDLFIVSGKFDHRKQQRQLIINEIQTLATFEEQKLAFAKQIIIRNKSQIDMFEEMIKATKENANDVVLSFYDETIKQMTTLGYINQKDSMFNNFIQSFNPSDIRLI
The experiment in a line: biochemical. The format is biochemical. Summed up: as §1

Test [5] has as its system Pseudomonas aeruginosa MB5890 (CB1101, efflux-deleted). The experiment in a line: microbe, parasite or virus in culture. The format is cell-based. The conditions noted are these: Pseudomonas aeruginosa, read-out: P. aeruginosa MB5890 efflux-del (MIC), MHII broth; * = some reduction of growth versus control at […].
Test [6] concerns Staphylococcus aureus MB6266 (MRSA COL). The test is described as follows: Nargenicin antibacterial assay (MIC), S. aureus. The format is cell-based. The settings on record: Staphylococcus aureus, MRSA, read-out: S. aureus COL (MIC), MHII broth + 50% human serum; * = some reduction of growth versus control at […].
Setting [7] is: read-out: E. coli DnaE IC50 (converted).

Usually IC50 stands for the concentration that inhibits the measured activity by half.

Values after ≈ are worked out from the molar mass of the structure shown. Read-outs that look alike come from different tables or passages of the source.

T1 sequence (P10443 whole entry, the tested form may be a part): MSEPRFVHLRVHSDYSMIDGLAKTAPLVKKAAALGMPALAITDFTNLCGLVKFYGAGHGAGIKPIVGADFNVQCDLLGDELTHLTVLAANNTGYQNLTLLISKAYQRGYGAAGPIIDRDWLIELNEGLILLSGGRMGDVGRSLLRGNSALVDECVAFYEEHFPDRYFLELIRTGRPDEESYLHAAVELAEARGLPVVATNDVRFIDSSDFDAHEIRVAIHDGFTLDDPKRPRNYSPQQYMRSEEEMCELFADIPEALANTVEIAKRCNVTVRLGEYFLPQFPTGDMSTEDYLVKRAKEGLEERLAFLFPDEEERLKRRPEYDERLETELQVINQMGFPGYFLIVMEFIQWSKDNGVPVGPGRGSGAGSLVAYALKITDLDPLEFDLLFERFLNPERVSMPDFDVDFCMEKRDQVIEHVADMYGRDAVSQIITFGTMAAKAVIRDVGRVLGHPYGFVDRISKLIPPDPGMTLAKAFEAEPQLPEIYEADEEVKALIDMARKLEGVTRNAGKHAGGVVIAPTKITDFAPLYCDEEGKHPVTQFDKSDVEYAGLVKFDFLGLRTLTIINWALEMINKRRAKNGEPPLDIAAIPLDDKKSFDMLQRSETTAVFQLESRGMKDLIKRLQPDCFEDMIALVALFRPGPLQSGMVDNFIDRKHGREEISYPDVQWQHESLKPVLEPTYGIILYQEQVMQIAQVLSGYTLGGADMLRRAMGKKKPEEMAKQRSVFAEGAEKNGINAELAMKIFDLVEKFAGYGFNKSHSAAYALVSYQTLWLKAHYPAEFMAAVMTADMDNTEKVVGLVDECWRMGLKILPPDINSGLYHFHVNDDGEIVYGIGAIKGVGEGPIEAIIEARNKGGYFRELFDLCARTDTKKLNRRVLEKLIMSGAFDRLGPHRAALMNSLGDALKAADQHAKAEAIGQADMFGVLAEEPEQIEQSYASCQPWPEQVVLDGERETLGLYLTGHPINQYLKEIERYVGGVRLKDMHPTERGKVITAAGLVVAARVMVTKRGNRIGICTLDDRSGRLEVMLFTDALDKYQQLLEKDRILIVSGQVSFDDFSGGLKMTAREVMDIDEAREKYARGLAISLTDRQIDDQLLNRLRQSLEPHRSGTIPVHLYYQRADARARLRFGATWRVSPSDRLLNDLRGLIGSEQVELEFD

With `CO[C@H]1C[C@H]2C=C[C@H]3[C@H]4O[C@]2(/C(C)=C/[C@@H](C)[C@@H]([C@@H](C)O)OC1=O)[C@@H]3C(=O)C(C)[C@H]4C#N` (stereo partly drawn) [Example 176, (3R,4 S ,7S ,8aS ,10aR,11R,12S ,14aR,14b S,E)-4-((R)-1-hydroxyethyl)-7-methoxy-1,3,13-trimethyl-6,14-dioxo-3,4,6,7,8,8a,10a,11,12,13,14,14a-dodecahydro-11,14b-epoxynaphtho[2,1-e]oxecine-12-carbonitrile], the IC50 in test [1] (E. coli DnaE IC50) was above 233 µM; in test [4] (read-out: S. aureus DnaE IC50 (converted)), 25.6 µM. Besides, the MIC in test [2], in test [3], in test [5] and in test [6] was above 128 µg/mL throughout.
As to `CO[C@H]1CC2C=C[C@H]3[C@H]4O[C@]2(/C(C)=C/[C@@H](C)[C@@H](C(C)=O)OC1=O)[C@@H]3[C@H](O)[C@@H](C)[C@H]4OC(=O)c1ccc[nH]1` (stereo partly drawn) [Example 177], the IC50 was 8.76 µM in test [1] (setting [7]) and below 0.0117 µM in test [4] (S. aureus DnaE IC50). For the same molecule, the MIC in test [2] was above 128 µg/mL; in test [3], 0.5 µg/mL (≈ 0.974 µM); in test [5], 8 µg/mL (≈ 15.6 µM); in test [6], 1 µg/mL.
As for `C=CC[C@@H]1C(C)[C@@H](O)[C@@H]2[C@H]3C=C[C@@H]4C[C@H](OC)C(=O)O[C@H]([C@@H](C)O)[C@H](C)/C=C(\C)[C@@]24O[C@H]31` (stereo partly drawn) [Example 179, (3R,4S,7S,8aS,10aR,11S,12R,14R,14aS,14bS,E)-12-allyl-14-hydroxy-4-((R)-1-hydroxyethyl)-7-methoxy-1,3,13-trimethyl-3,4,8,8a,10a,11,12,13,14,14a-decahydro-11,14b-epoxynaphtho[2,1-e]oxecin-6(7H)-one], the IC50 in test [1] (setting [7]) is above 112 µM; in test [4] (S. aureus DnaE IC50) it was 29.1 µM. For the same molecule, the MIC is 64 µg/mL (≈ 143 µM) in test [2], 64 µg/mL (≈ 143 µM) in test [3], above 64 µg/mL in test [5] and above 64 µg/mL in test [6].
In the case of `CO[C@H]1CC2C=C[C@H]3[C@H]4O[C@]2(/C(C)=C/[C@@H](C)[C@@H](/C(C)=N\O)OC1=O)[C@@H]3[C@H](O)[C@@H](C)[C@H]4OC(=O)c1ccc[nH]1` (stereo partly drawn) [Example 180], the figures for the IC50 in test [1] (setting [7]) and in test [4] (S. aureus DnaE IC50) were 11.4 µM and below 0.0114 µM, respectively. The MIC in test [2] turned out to be 32 µg/mL (≈ 60.5 µM); in test [3], 4 µg/mL (≈ 7.57 µM); in test [5] it was 64 µg/mL (≈ 121 µM); in test [6] it was 4 µg/mL.
Regarding `CO[C@H]1C[C@H]2CC(=O)[C@H]3[C@H]4O[C@]2(/C(C)=C/[C@@H](C)[C@@H]([C@@H](C)O)OC1=O)[C@@H]3[C@H](O)[C@@H](C)[C@H]4OC(=O)c1ccc[nH]1` [Example 181], the IC50 was above 188 µM in test [1] (setting [7]) and 0.0941 µM in test [4] (S. aureus DnaE IC50). The MIC is above 128 µg/mL in test [2], 8 µg/mL (≈ 15 µM) in test [3], 32 µg/mL (≈ 60.2 µM) in test [5] and 64 µg/mL in test [6].
Regarding `CO[C@H]1C[C@H]2C(=O)C[C@H]3[C@H]4O[C@]2(/C(C)=C/[C@@H](C)[C@@H]([C@@H](C)O)OC1=O)[C@@H]3[C@H](O)[C@@H](C)[C@H]4OC(=O)c1ccc[nH]1` [Example 182], the results for the IC50 in test [1] (setting [7]) and in test [4] (S. aureus DnaE IC50) were above 188 µM and 0.0376 µM, respectively. Besides, the MIC is above 128 µg/mL in test [2], 8 µg/mL (≈ 15 µM) in test [3], 32 µg/mL (≈ 60.2 µM) in test [5] and 32 µg/mL in test [6].
For `CO[C@H]1CC2C=C[C@H]3[C@H]4O[C@]2(/C(C)=C/[C@@H](C)[C@@H](C(C)NC2CC2)OC1=O)[C@@H]3[C@H](O)[C@@H](C)[C@H]4OC(=O)c1ccc[nH]1` (stereo partly drawn) [Example 185], the IC50 in test [1] (setting [7]) was above 180 µM; in test [4] (S. aureus DnaE IC50), below 0.0108 µM. The MIC in test [2], in test [3], in test [5] and in test [6] was above 128 µg/mL each time.
Consider `CO[C@H]1C[C@H]2C=C[C@H]3[C@H]4O[C@]2(/C(C)=C/[C@@H](C)[C@@H]([C@@H](C)O)OC1=O)[C@@H]3[C@H](O)[C@@H](C)[C@H]4OC(C)=O` [Example 186], for which the IC50 in test [1] (setting [7]) is 64.6 µM; in test [4] (S. aureus DnaE IC50) it was around 0.00969 µM. Further, the MIC in test [2] was above 128 µg/mL; in test [3], 4 µg/mL (≈ 8.61 µM); in test [5] it was 16 µg/mL (≈ 34.4 µM); in test [6], 8 µg/mL.
For `CO[C@H]1C[C@H]2C=C[C@H]3[C@H]4O[C@]2(/C(C)=C/[C@@H](C)[C@@H]([C@@H](C)O)OC1=O)[C@@H]3[C@H](OC(N)=O)[C@@H](C)[C@H]4O` [Example 187], the results for the half-maximal inhibitory concentration (IC50) in test [1] (setting [7]) and in test [4] (S. aureus DnaE IC50) were above 215 µM and 0.387 µM, respectively. For the same molecule, the MIC was above 128 µg/mL in test [2], 16 µg/mL (≈ 34.4 µM) in test [3], 32 µg/mL (≈ 68.7 µM) in test [5] and above 128 µg/mL in test [6].
Turning to `CO[C@H]1C[C@H]2C=C[C@H]3[C@H]4O[C@]2(/C(C)=C/[C@@H](C)[C@@H]([C@@H](C)O)OC1=O)[C@@H]3[C@H](O)C(C)[C@H]4C#N` (stereo partly drawn) [Example 188, (3R,4S,7S,8aS,10aR,11R,12S,14R,14aS,14bS,E)-14-hydroxy-4-((R)-1-hydroxyethyl)-7-methoxy-1,3,13-trimethyl-6-oxo-3,4,6,7,8,8a,10a,11,12,13,14,14a-dodecahydro-11,14b-epoxynaphtho[2,1-e]oxecine-12-carbonitrile], the IC50 in test [1] (setting [7]) is above 232 µM; in test [4] (S. aureus DnaE IC50), 0.232 µM. Also, the MIC in test [2] is 128 µg/mL (≈ 297 µM); in test [3] it was 32 µg/mL (≈ 74.2 µM); in test [5], 64 µg/mL (≈ 148 µM); in test [6], 128 µg/mL.
Take `CC[C@H]1OC(=O)[C@@H](OC)C[C@H]2C=C[C@H]3[C@H]4O[C@]2(/C(C)=C/[C@H]1C)[C@@H]3[C@H](O)C(C)[C@H]4C#N` (stereo partly drawn) [Example 189, (3R,4R,7S,8aS,10aR,11R,12S,14R,14aS,14bS,E)-4-ethyl-14-hydroxy-7-methoxy-1,3,13-trimethyl-6-oxo-3,4,6,7,8,8a,10a,11,12,13,14,14a-dodecahydro-11,14b-epoxynaphtho[2,1-e]oxecine-12-carbonitrile]: the IC50 in test [1] (setting [7]) is above 241 µM; in test [4] (S. aureus DnaE IC50) it was 144 µM. The MIC in test [2], in test [3], in test [5] and in test [6] was above 128 µg/mL throughout.
With `CO[C@H]1C[C@H]2[C@H](O)C[C@H]3[C@H]4O[C@]2(/C(C)=C/[C@@H](C)[C@@H]([C@@H](C)O)OC1=O)[C@@H]3[C@H](O)[C@@H](C)[C@H]4OC(=O)c1ccc[nH]1` [Example 191], the IC50 in test [1] (setting [7]) was above 187 µM; in test [4] (S. aureus DnaE IC50), 7.5 µM. The MIC in test [2] is above 128 µg/mL; in test [3], 128 µg/mL (≈ 240 µM); in test [5] it was above 128 µg/mL; in test [6] it was above 128 µg/mL.
As to `CO[C@H]1C[C@H]2C[C@H](O)[C@H]3[C@H]4O[C@]2(/C(C)=C/[C@@H](C)[C@@H]([C@@H](C)O)OC1=O)[C@@H]3[C@H](O)[C@@H](C)[C@H]4OC(=O)c1ccc[nH]1` [Example 192], the IC50 in test [1] (setting [7]) is above 187 µM; in test [4] (S. aureus DnaE IC50), 18.7 µM. Further, the MIC in test [2], in test [3], in test [5] and in test [6] was above 128 µg/mL each time.
